Assay: xn = mol fraction of the nth substance listed
Conditions: 101 kPa, Liquid; for viscosity: Capillary tube (Ostwald / Ubbelohde) method; for speed of sound: Sing-around technique in a fixed-path interferometer

CCCCCCCCO [octan-1-ol] + CCCCCC
Conditions	mass density, 298.15 K [kg/m3]	mass density, 303.15 K [kg/m3]	mass density, 308.15 K [kg/m3]	speed of sound, 298.15 K [m/s]	speed of sound, 303.15 K [m/s]	speed of sound, 308.15 K [m/s]	viscosity, 298.15 K [mPa·s]
x1 = 0.0651	668.557	663.926	659.735	1090.1	1068.1	1046.3	0.358
x1 = 0.1109	677.728	673.192	668.685	1100	1078.1	1056.6	0.409
x1 = 0.1511	685.618	681.095	676.641	1109.9	1089.3	1066.9	0.444
x1 = 0.2052	695.979	691.566	687.129	1123.8	1102.7	1081.6	0.53
x1 = 0.2699	708.106	703.843	699.426	1142.3	1121.4	1099.9	0.654
x1 = 0.3016	713.929	709.692	705.291	1150.4	1129.8	1109.3	0.725
x1 = 0.4013	731.693	727.596	723.487	1178.7	1158.8	1138.9	1.023
x1 = 0.5059	749.508	745.544	741.544	1209.1	1189.6	1170.3	1.477
x1 = 0.6014	765.032	761.168	757.276	1237	1218.1	1199.2	2.057
x1 = 0.7083	781.504	777.748	773.973	1268.1	1249.8	1231.4	2.954
x1 = 0.7967	794.381	790.775	787.028	1293.2	1275.3	1257.6	3.977
x1 = 0.8463	801.415	797.955	794.319	1307.2	1289.7	1272.1	4.666
x1 = 0.9154	810.757	807.483	803.632	1326.1	1308.4	1291.3	5.802
x1 = 0.9401	814.039	810.851	807.169	1332.7	1315.5	1298.5	6.264
x1 = 1	821.813	818.796	815.286	1348	1330.8	1314.1	7.508

CCCCCCCCO [octan-1-ol] + CCCCCCCCCC
Conditions	mass density, 298.15 K [kg/m3]	mass density, 303.15 K [kg/m3]	mass density, 308.15 K [kg/m3]	speed of sound, 298.15 K [m/s]	speed of sound, 303.15 K [m/s]	speed of sound, 308.15 K [m/s]	viscosity, 298.15 K [mPa·s]
x1 = 0.0507	730.551	726.796	722.969	1236.4	1216.3	1196.8	0.896
x1 = 0.1199	735.871	732.137	728.314	1240.1	1220.5	1201.1	0.978
x1 = 0.1532	738.514	734.755	730.923	1242.2	1222.7	1203.4	1.026
x1 = 0.2085	742.997	739.255	735.427	1246.3	1226.8	1207.5	1.121
x1 = 0.2654	747.773	744.007	740.195	1250.8	1231.7	1212.6	1.233
x1 = 0.3097	751.578	747.791	743.987	1254.8	1235.6	1216.6	1.33
x1 = 0.4009	759.689	755.863	752.086	1263.5	1244.6	1225.9	1.579
x1 = 0.5041	769.261	765.532	761.703	1274.7	1256	1237.4	1.958
x1 = 0.6069	779.261	775.493	771.782	1287.2	1268.7	1250.5	2.49
x1 = 0.7244	791.228	787.587	783.929	1303.1	1285	1267.4	3.381
x1 = 0.7505	793.993	790.368	786.721	1306.9	1288.9	1271.5	3.642
x1 = 0.804	799.684	796.157	792.558	1315.2	1297.5	1279.9	4.231
x1 = 0.8958	809.826	806.478	802.907	1330.1	1312.7	1295.6	5.521
x1 = 0.9544	816.493	813.314	809.765	1339.9	1322.9	1305.9	6.563
x1 = 1	821.813	818.796	815.286	1348	1330.8	1314.1	7.508

CCCCCCCCO [octan-1-ol] + CCCCCCCC
Conditions	mass density, 298.15 K [kg/m3]	mass density, 303.15 K [kg/m3]	mass density, 308.15 K [kg/m3]	speed of sound, 298.15 K [m/s]	speed of sound, 303.15 K [m/s]	speed of sound, 308.15 K [m/s]	viscosity, 298.15 K [mPa·s]
x1 = 0.0548	705.04	700.957	696.852	1177.6	1156.9	1136.7	0.554
x1 = 0.1078	711.299	707.298	703.23	1183.3	1162.8	1142.7	0.621
x1 = 0.1526	716.736	712.733	708.68	1189.2	1168.9	1148.9	0.679
x1 = 0.2019	722.796	718.79	714.754	1196	1175.9	1156.1	0.762
x1 = 0.2516	728.888	724.91	720.901	1203.4	1183.5	1163.6	0.839
x1 = 0.3075	735.75	731.816	727.826	1212.2	1192.3	1172.8	0.965
x1 = 0.4055	747.852	743.986	740.044	1228	1208.9	1189.7	1.222
x1 = 0.5031	759.965	756.131	752.284	1245.5	1226.6	1207.7	1.569
x1 = 0.602	772.269	768.472	764.683	1263.9	1245.2	1227	2.091
x1 = 0.7158	786.456	782.773	779.057	1286.9	1268.7	1250.9	2.991
x1 = 0.803	797.369	793.787	790.122	1305.6	1287.7	1270.1	3.986
x1 = 0.8501	803.36	799.76	796.133	1315.7	1297.9	1280.6	4.652
x1 = 0.8959	808.907	805.579	801.983	1325.7	1308.1	1290.9	5.399
x1 = 0.9509	815.733	812.572	809.022	1337.5	1320.2	1303.2	6.441
x1 = 1	821.813	818.796	815.286	1348	1330.8	1314.1	7.508

— the NIST ThermoML archive (doi:10.1016/j.jct.2008.02.005)
